Source: US6589504B1, “Compounds and methods for diagnosing and treating amyloid-related conditions” (Pharmacia & Upjohn Company, priority 2000, dated 2003)
Read-outs that look alike come from different tables or passages of the source.

Tests used:
[1] = test system: amyloid-like proteins with a beta-pleated sheet conformation; settings: in vitro; cited from earlier work
[2] = molecular target: T1, human β-amyloid containing plaques (Homo sapiens, UniProt P05067); experiment: Determination of in vivo brain distribution (fluorescence of brain sections)
T1 construct: from tissue; host or cells: brain of transgenic (Tg) mice carrying the human β-APP gene
T1 sequence (P05067 672-713 limits assumed): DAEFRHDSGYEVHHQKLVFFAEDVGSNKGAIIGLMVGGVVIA
Procedure: Transgenic mice, designated “Tg”, were obtained. The transgenic mice carry the human gene for β-APP, a gene associated with β-amyloid deposition in the brain. The mice were treated with.the quinolinehydrazone compound, 4-methyl-7-methoxy-2-(4-quinolylmethylhydrazino)quinoline. Dosing was administered either intravenously or orally. The intravenous dose was administered as a single injection (50 μmol/kg). Orally-treated animals received a single dose (400 μmol/kg) via oral gavage, or were dosed twice-a-day for 10 days (400 μmol/kg/dose/day).
Age-matched normal mice served as a negative control, i.e. no plaque formation in the animals was indicated. The control mice were treated in the same manner as the transgenic mice, but with placebo.
In addition, a group of age-matched Tg mice were treated with the carrier vehicle only.
All animals were sacrificed beginning 1, 3 and 10 h after the final dose. Fresh brains of the animals were removed, bisected, and positioned in […] (OCT). The brains were immersed into 2-methylbutane, pre-cooled to […] with liquid nitrogen. The brains were cut into 20 μm thick sections at a temperature of −20° C. Brain sections were collected onto poly-L-lysine-coated glass microscopic slide and treated with (1 drop) of 75%, by volume (v/v), glycerin in […](PBS). […]
The section adjacent to each compound-treated section of the brain was stained with thioflavin S (Sigma Chemicals, Milwaukee, Wis., U.S.A.). Sections stained with thioflavin S served as a positive control for identifying plaque. The distribution of compound-associated fluorescence was compared with the distribution of thioflavin S-stained section in order to confirm whether the compound bound plaque.
All sections were examined 1 h later to assess artifactual drug diffusion within thawed sections over time.

[3] = Dose-dependent pharmacokinetics: plasma and brain Cmax after oral dosing; assay type: in vivo; settings: normal mice, 400 to 3,200 μmol/kg
Procedure: Dose-proportionality characteristics were assessed by measuring the maximum concentration (Cmax) for plasma and brain concentrations after oral dosing of normal mice. […] Plasma and brain concentrations were measured by HPLC at 0.5 to 24 hours.

[4] = In vivo determination of plasma and brain exposure (AUC) after oral dosing; settings: normal mice; for Kp: brain/plasma
Procedure: Plasma and brain exposure were assessed by measuring area under the curve (AUC) after oral dosing of normal mice.
The brain to plasma ratios were calculated and reported below.
The terminal half-life of compound in the brain was measured to determine the dosing frequency for 10-day tolerance studies. For the three highest doses, brain terminal half-life ranged from 5-7 h.

[5] = molecular target: T2, amyloid plaque in brains of Tg mice (Homo sapiens, UniProt P05067); experiment: Postmortem staining of amyloid plaque in brain sections
T2 construct: from tissue; host or cells: frozen, methanol-fixed brain sections of 12-14 month-old Tg mice
T2 sequence (P05067 672-713 limits assumed): as above
Procedure: Brains from 12-14 month-old Tg mice were frozen and sectioned at −20° C. Each section was fixed in ice cold methanol (Aldrich Chemical Co., Milwaukee, Wis.) for 10 minutes, rinsed in buffer and incubated in 4-methyl-7-methoxy-2-(4-quinolylmethylenehydrazino)quinoline for 90 minutes at room temperature. […] Fluorescence intensity in Tg mouse amyloid decreased with drug concentration. […] The […] mouse brains were confirmed to be plaque-free.

Neuronal cells = experiment: In vitro antioxidant effect, neuronal cytoprotection model; assay type: cell-based; settings: 1, 3, 10, 30 and 100 μM, with and without ferrous ammonium sulfate, 3 hours, LC/MS
Procedure: The 4-methyl-7-methoxy-2-(4-quinolylmethylene-hydrazino)quinoline was dissolved in 100×stock of aqueous Locke's buffer to obtain concentrations of 1, 3, 10, 30, and 100 μM solution. Neuronal cells were incubated in each compound solution with and without ferrous ammonium sulfate (200 μm) for 3 hours. High concentration supernatant was obtained from each sample. The samples were analyzed under liquid chromatography/mass spectrometry (LC/MS).

[6] = test system: primary neuronal model of FAS-induced lipid peroxidation toxicity; experiment: In vitro antioxidant effect, ferrous ammonium sulfate (FAS)-induced oxidative toxicity model; assay type: cell-based
Procedure: The 4-methyl-7-methoxy-2-(4-quinolylmethylene-hydrazino)quinoline was tested in a primary neuronal model of FAS-induced lipid peroxidation toxicity. The compound was treated in two manners. In one manner, the compound was solubilized as 100×stock in 100% dimethyl sulfoxide (DMSO) to afford panel A. In another manner, the compound was solubilized in aqueous Locke's buffer to give panel B.

[7] = 30 and 100 μM, 1% DMSO experiments (panel A)

Nc1c(N=Nc2ccc(-c3ccc(N=Nc4cc(S(=O)(=O)[O-])c5ccccc5c4N)cc3)cc2)cc(S(=O)(=O)[O-])c2ccccc12.[Na+].[Na+] [Congo red, 3,3′-[[1,1′-biphenyl]-4,4′-diylbis(azo)]bis[4-amino-1-naphthalenesulfonic acid] disodium salt]
binding to amyloid-like proteins [1]: demonstrated binding

COc1ccc2c(C)cc(NN=Cc3ccnc4ccccc34)nc2c1 [4-methyl-7-methoxy-2-(4-quinolylmethylenehydrazino)quinoline]
plaque burden shown in brain sections compared with thioflavin S stained sections ([2]; Tg mice receiving the compound): marked plaque burden | drug-related fluorescence in brain sections in areas of plaque formation ([2]; Tg mice, i.v. 50 μmol/kg or oral 400 μmol/kg, λex 365 nm, λem 400 nm): intense drug-related fluorescence | binding to plaques in vivo ([2]; Tg mice, i.v. or oral dosing): preferentially binds to human β-amyloid containing plaques | brain penetration ([2]; Tg mice, i.v. or oral dosing): brain penetrable | Cmax for brain, dose proportionality [3]: increases proportionally | Cmax for plasma, dose proportionality [3]: increases proportionally | Kp ([4]; mouse, oral, dose 51 μmole/kg, read-out: B/P Ratio AUC): 5.3 | Kp ([4]; mouse, oral, dose 208 μmole/kg, read-out: B/P Ratio AUC): 3.2 | Kp ([4]; mouse, oral, dose 421 μmole/kg, read-out: B/P Ratio AUC): 2.5 | Kp ([4]; mouse, oral, dose 831 μmole/kg, read-out: B/P Ratio AUC): 5.7 | Kp ([4]; mouse, oral, dose 1472 μmole/kg, read-out: B/P Ratio AUC): 5.7 | Kp ([4]; mouse, oral, dose 3024 μmole/kg, read-out: B/P Ratio AUC): 7.3 | Kp ([4]; mouse, oral, over the dose range tested, read-out: brain levels relative to plasma levels, average): 5 | half-life ([4]; mouse, brain, oral, three highest doses, read-out: brain terminal half-life): 5 to 7 h | penetration to the brain tissue ([4]; oral): good penetration of the compound to the brain tissue | plasma exposure, saturation ([4]; oral, 3,024 μmol/kg): evidence of saturation | brain exposure, dose dependence ([4]; oral, 421 to 1,472 μmol/kg): increased more rapidly | plasma exposure, dose proportionality ([4]; oral, 421 to 1,472 μmol/kg): increased proportionally | localization of compound fluorescence, confirmed by thioflavin S staining of adjacent sections ([5]; Tg mouse brain sections): does localize in amyloid plaques | staining in brains of transgene-free mice ([5]; brain sections of transgene-free mice): not in brains of transgene-free mice | antioxidant effect (Neuronal cells): demonstrated antioxidant properties | cell morphology, brightfield photographs ([6]; 10 μM + FAS cells versus control cells): no different than cells treated with no drug and no FAS | neuronal protection against FAS ([6]; 10 μM compound, 200 μM FAS, 3 hours, 14C-AIB uptake or LDH release): close to or complete neuronal protection | drug toxicity to neuronal cells ([6]; 30 μM, aqueous preparation (panel B)): much less drug toxicity | concentration range of concentration-dependent inhibition of FAS toxicity ([6]; 200 μM FAS, 3 hours, 14C-AIB uptake or LDH release): 0.3 to 10 µM | drug toxicity to neuronal cells [6, 7]: inherent drug toxicity | neuronal protection against FAS [6, 7]: no neuronal protection | neuronal protection against FAS ([6]; 30 and 100 μM, aqueous preparation (panel B)): considerable neuronal protection
